{"source": "patent US9289429B2", "about": "“Compounds and methods for inhibiting phosphate transport” (Ardelyx, Inc., priority 2010, dated 2016)", "key": {"[1]": {"assay": "Determination of compound Cmax and AUC after oral gavage", "type": "in vivo", "settings": "Sprague-Dawley, rat plasma, actual oral dose 8.9 mg/kg (Example 11) or 10 mg/kg (Example 2)", "description": "Sprague-Dawley rats were orally gavaged with test article at a nominal dose of 2.5 or 10 mg/kg and blood was collected at 0.5, 1, 2 and 4 h. Blood samples were processed to plasma using K2EDTA as an anticoaglulant. Plasma samples were treated with acetonitrile containing an internal standard, precipitated proteins removed by centrifugation. Supernatants were analyzed by LC-MS/MS and compound concentrations were determined by interpolated from a standard curve prepared in plasma. All compounds were orally dosed at the dosage shown, and pharmacokinetic parameters determined"}, "[2]": {"molecular_target": "T1, rat NaP2b (SLC34A2) (Rattus norvegicus, UniProt Q9JJ09)", "T1 construct": "host or cells: HEK293", "T1 sequence (Q9JJ09 1-695)": "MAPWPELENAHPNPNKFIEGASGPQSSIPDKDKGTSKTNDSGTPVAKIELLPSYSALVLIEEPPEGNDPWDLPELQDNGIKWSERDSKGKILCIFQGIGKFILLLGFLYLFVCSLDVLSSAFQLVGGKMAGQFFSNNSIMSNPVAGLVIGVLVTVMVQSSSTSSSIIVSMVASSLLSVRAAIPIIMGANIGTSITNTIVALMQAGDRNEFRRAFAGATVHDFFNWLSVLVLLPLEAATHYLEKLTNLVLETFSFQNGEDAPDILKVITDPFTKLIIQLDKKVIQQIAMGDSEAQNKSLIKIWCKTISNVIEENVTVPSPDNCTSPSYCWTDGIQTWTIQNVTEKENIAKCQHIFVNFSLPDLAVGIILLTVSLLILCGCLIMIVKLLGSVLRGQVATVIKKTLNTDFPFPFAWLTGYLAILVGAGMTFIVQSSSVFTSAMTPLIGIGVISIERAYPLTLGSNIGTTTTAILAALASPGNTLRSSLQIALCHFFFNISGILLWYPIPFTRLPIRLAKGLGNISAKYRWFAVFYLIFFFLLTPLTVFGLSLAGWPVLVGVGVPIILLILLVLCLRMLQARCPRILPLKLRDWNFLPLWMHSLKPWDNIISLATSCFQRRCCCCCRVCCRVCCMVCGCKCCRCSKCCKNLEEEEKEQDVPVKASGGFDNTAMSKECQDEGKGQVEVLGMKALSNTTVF", "assay": "NaP2b-mediated Pi transport (33P uptake) in transfected HEK293 cells, rat transporter", "type": "cell-based", "settings": "HEK293 cells transfected with rat NaP2b, 33P phosphate uptake, 100 uM KH2PO4; read-out: pIC50 range for rat Nap2b (converted)", "description": "(§1) HEK293 cells were obtained from the American Type Culture collection and propagated per their instructions. Expression clones for rat and human NaP2b (SLC34A2) were obtained from Open Biosystems (Catalog numbers MRN1768-9510282, and MHS1010-99823026, respectively). The sequence of the human protein was mutated to insert a threonine after residue 37, and to introduce a N39D mutation.\n(§2) The rate of phosphate (Pi) uptake into HEK293 cells was measured using a modification of the method described by Mohrmann et al. (Mohrmann, I., Mohrmann, M., Biber, J., and Murer, H. (1986) Am. J. Phys. 250(3 Pt 1):G323-30.) Transfected HEK293 cells were treated with a pharmacological agent to minimize endogenous PiT-mediated phosphate transport activity, such that the only remaining sodium-dependent phosphate transport activity is that which was bestowed by introduction of the NaP2b genes.\n(§3) Cells were seeded into 96-well plates at 25,000 cells/well and cultured overnight. Lipofectamine 2000 (Invitrogen) was used to introduce the NaP2b cDNA, and the cells were allowed to approach confluence during a second overnight incubation. […] Cells were then overlayed with either choline uptake buffer or sodium uptake buffer (14 mM Tris, 137 mM sodium chloride, 5.4 mM KCl, 2.8 mM CaCl2, 1.2 mM MgSO4, 100 uM KH2PO4, PiT-silencing agent, 1 mg/mL Bovine Serum Albumin, pH 7.4) containing 6-9 uCi/mL ^33P orthophosphoric acid (Perkin Elmer) and test compound. Each compound was tested at twelve concentrations ranging from 0.1 nM to 30 uM. Assays were run in duplicate.\n(§4) After incubation for 3-30 minutes at room temperature, assay mixtures were removed, and the cells were washed twice with ice cold stop solution (137 mM sodium chloride, 14 mM Tris, pH 7.4). Cells were lysed by addition of 20 μL 0.1% Tween 80 followed by 100 μL scintillation fluid, and counted using a TopCount (Perkin Elmer).\n(§5) pIC50 (the negative log of the IC50) values of the test compounds were calculated using GraphPad Prism."}, "[3]": {"assay": "Fecal recovery of orally administered compounds", "type": "in vivo", "settings": "rat, oral gavage, feces collected until 48 hr after dosing, same animals as Example 22", "description": "Quantitative determination of test compound level in feces after oral gavage was performed using the same set of animals used to determine test compound concentration in plasma (Example 22). The animals were kept in metabolic cages and feces were collected from the time of dosing until 48 hr after dosing. Upon collection, feces was dried by lyophilization and ground to a visually homogenous powder. Duplicate samples of ground feces from each individual animal were weighed out and extracted using organic solvent. Extracted samples were then diluted into mobile phase and test compound levels were quantitatively determined by LC-MS/MS analysis as described in “Example 22” except that the standard curve was prepared in a feces matrix. Extraction conditions were not optimized for individual compounds, and thus may represent a minimal level of recovery."}, "[4]": {"system": "Sprague-Dawley rats", "assay": "In vivo bolus phosphate challenge", "settings": "rat, oral, Drug Dose 30 (unit not given), serum 30 min post phosphate bolus", "description": "By pretreating animals with a low phosphorus diet followed by the subsequent dosing of a phosphorus bolus, serum phosphorus levels were monitored after 30 minutes as a surrogate for intestinal phosphorus absorption. […] The in vivo bolus phosphorus challenge model used here mimics this model in rats.\nMale, 7-week-old Sprague-Dawley rats (Charles-River laboratories international, Hollister, Calif.) were allowed to acclimate for a minimum of 3 days before switching to a synthetic low-phosphorus diet (TD.85010, Harlan Teklad, Madison, Wis.) which contains 0.1% phosphorus and 0.6% calcium. At day 5, testing compounds or vehicle alone (as indicated) were orally administered at the indicated dose in a volume of 5 ml/kg, followed by a bolus gavage of monobasic sodium phosphate (1 mmol in 1 ml) 15 min after compound dosing. Serum was collected via retroorbital bleeding 30 min post phosphate bolus and phosphate levels were determined utilizing an ACE ALERA blood chemistry analyzer (Alfa Wassermann Diagnostic Technologies, West Caldwell, N.J.).\nThe extent of inhibition by test compounds on the elevation of serum phosphate levels in response to the bolus of phosphate is shown in Table 3 (data are expressed as % Inhibition, with 6-10 animals per data point). The differences between groups were evaluated by one-way analysis of variance with Dunnett's post hoc tests."}, "[5]": {"molecular_target": "T2, human NaP2b (SLC34A2) (Homo sapiens, UniProt O95436)", "T2 construct": "host or cells: HEK293", "T2 sequence (O95436 1-690)": "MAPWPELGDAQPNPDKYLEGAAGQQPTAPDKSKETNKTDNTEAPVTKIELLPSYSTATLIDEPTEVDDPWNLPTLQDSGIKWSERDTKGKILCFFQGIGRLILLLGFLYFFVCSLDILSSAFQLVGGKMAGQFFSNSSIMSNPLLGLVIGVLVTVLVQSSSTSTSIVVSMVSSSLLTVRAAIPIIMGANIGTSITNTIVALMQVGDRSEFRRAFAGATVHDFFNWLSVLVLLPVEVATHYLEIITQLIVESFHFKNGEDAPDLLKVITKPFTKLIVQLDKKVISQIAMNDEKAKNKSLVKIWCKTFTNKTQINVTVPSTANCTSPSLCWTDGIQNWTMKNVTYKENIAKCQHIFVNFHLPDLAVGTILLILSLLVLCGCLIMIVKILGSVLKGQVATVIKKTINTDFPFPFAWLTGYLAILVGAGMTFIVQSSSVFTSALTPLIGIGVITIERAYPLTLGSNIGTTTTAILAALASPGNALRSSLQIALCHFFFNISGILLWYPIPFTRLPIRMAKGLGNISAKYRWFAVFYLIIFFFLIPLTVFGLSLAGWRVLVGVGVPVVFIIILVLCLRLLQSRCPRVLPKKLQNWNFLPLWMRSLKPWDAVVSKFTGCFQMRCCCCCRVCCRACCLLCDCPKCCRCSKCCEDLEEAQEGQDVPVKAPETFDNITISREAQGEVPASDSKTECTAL", "assay": "NaP2b-mediated Pi transport (33P uptake) in transfected HEK293 cells, human transporter", "type": "cell-based", "settings": "HEK293 cells transfected with human NaP2b (Thr inserted after residue 37, N39D), 33P phosphate uptake, 100 uM KH2PO4; read-out: pIC50 range for human Nap2b (converted)", "description": "as §1, §2, §3, §4, §5"}, "[6]": {"molecular_target": "T3, NaPi2b (Rattus norvegicus, UniProt Q9JJ09)", "T3 construct": "host or cells: HEK293", "T3 sequence (Q9JJ09 1-695)": "T1 sequence (Q9JJ09 1-695)", "assay": "Competition with phosphate: Pi transport assay repeated at 2.1 vs 0.1 mM phosphate", "type": "cell-based", "settings": "potency for inhibition of NaPi2b at 2.1 vs 0.1 mM phosphate", "description": "To ascertain if an inhibitor was competitive for binding with phosphate, the procedure was repeated, but raising the concentration of the substrate in the assay mixture from 0.1 to 2.1 mM phosphate."}, "[7]": {"assay": "Stability in simulated gastric and intestinal fluid", "type": "in vitro ADME", "settings": "incubation 6 hr, 1-20 μM", "description": "Test compounds were incubated at 1-20 μM in simulated gastric fluid (SGF; standard USP solution with 3 mg/mL pepsin) or simulated intestinal fluid (SIF; standard USP solution with 3 mg/mL pancreatin) for 3 hr or 6 hr. HPLC-UV or HPLC-MS were used to determine test compound levels using peak area %. Results (Table 5) were reported as the percentage of test compound remaining after incubation in a given condition relative to test compound present at t=0 in the same condition."}}, "data": [{"smiles": "O=C(O)CCSCc1cccc(C(=O)Nc2ccc(N3CCCCC3)cc2C(=O)Nc2cnc(-c3ccccc3)nc2)c1", "note": "[Example 2, 3-((3-((2-((2-Phenylpyrimidin-5-yl)carbamoyl)-4-(piperidin-1-yl)phenyl)carbamoyl)benzyl)thio)propanoic acid]", "values": [{"measurement": "Cmax", "setting": "[1]; LLOQ 5 ng/mL", "value": 645, "unit": "ng/mL"}, {"measurement": "AUC", "setting": "[1]; samples 0.5-4 h", "value": 822, "unit": "ng·h/mL"}, {"measurement": "IC50", "setting": "[2]", "value": "1000 to 7940", "unit": "nM"}, {"measurement": "% recovered in feces", "setting": "[3]", "value": 16, "unit": "%"}]}, {"smiles": "O=C(O)CCSCc1cccc(C(=O)Nc2ccc(N3CCCCC3)cc2C(=O)Nc2cnc(-c3cccc(C(F)(F)F)c3)nc2)c1", "note": "[Example 4, 3-((3-((4-(Piperidin-1-yl)-2-((2-(3-(trifluoromethyl)phenyl)pyrimidin-5-yl)carbamoyl)phenyl)carbamoyl)benzyl)thio)propanoic acid]", "values": [{"measurement": "% Inhibition of Serum P elevation", "setting": "[4]", "value": 11, "unit": "%"}, {"measurement": "IC50", "setting": "[2]", "value": "1000 to 7940", "unit": "nM"}]}, {"smiles": "CN(CCN1CCOCC1)C(=O)c1cccc(C(=O)Nc2ccc(N3CCCCC3)cc2C(=O)Nc2cnc(-c3cccc(C(F)(F)F)c3)nc2)c1", "note": "[Example 10, N1-Methyl-N1-(2-morpholinoethyl)-N3-(4-(piperidin-1-yl)-2-((2-(3-(trifluoromethyl)phenyl)pyrimidin-5-yl)carbamoyl)phenyl)isophthalamide]", "values": [{"measurement": "IC50", "setting": "[5]", "value": "< 1000", "unit": "nM"}, {"measurement": "Competitive with respect to Pi?", "setting": "[6]", "value": "No"}, {"measurement": "IC50", "setting": "[2]", "value": "< 1000", "unit": "nM"}]}, {"smiles": "CN(CCN1CCOCC1)C(=O)c1cccc(C(=O)Nc2ccc(N3CCCCC3)cc2C(=O)Nc2cnc(-c3ccccc3)nc2)c1", "note": "[Example 11, N1-Methyl-N1-(2-morpholinoethyl)-N3-(2-((2-phenylpyrimidin-5-yl)carbamoyl)-4-(piperidin-1-yl)phenyl)isophthalamide]", "values": [{"measurement": "IC50", "setting": "[5]", "value": "< 1000", "unit": "nM"}, {"measurement": "Competitive with respect to Pi?", "setting": "[6]", "value": "No"}, {"measurement": "IC50", "setting": "[2]", "value": "< 1000", "unit": "nM"}, {"measurement": "% recovered in feces", "setting": "[3]", "value": 26, "unit": "%"}]}, {"smiles": "CN(CCOCCOCCOCCC(=O)O)C(=O)c1cccc(C(=O)Nc2ccc(N3CCCCC3)cc2C(=O)Nc2cnc(-c3ccccc3)nc2)c1", "note": "[Example 15, 2-Methyl-1-oxo-1-(3-((2-((2-phenylpyrimidin-5-yl)carbamoyl)-4-(piperidin-1-yl)phenyl)carbamoyl)phenyl)-5,8,11-trioxa-2-azatetradecan-14-oic acid]", "values": [{"measurement": "IC50", "setting": "[2]", "value": "1000 to 7940", "unit": "nM"}, {"measurement": "% remaining, SGF", "setting": "[7]; simulated gastric fluid with 3 mg/mL pepsin", "value": 97, "unit": "%"}, {"measurement": "% remaining, SIF", "setting": "[7]; simulated intestinal fluid with 3 mg/mL pancreatin", "value": 98, "unit": "%"}]}, {"smiles": "O=C(O)CCOCCOCCOCCNC(=O)Cc1cccc(SCc2cccc(C(=O)Nc3ccc(N4CCCCC4)cc3C(=O)Nc3ncc(-c4ccccc4)cn3)c2)c1", "note": "[Example 17, 2-Oxo-1-(3-((3-((2-((5-phenylpyrimidin-2-yl)carbamoyl)-4-(piperidin-1-yl)phenyl)carbamoyl)benzyl)thio)phenyl)-6,9,12-trioxa-3-azapentadecan-15-oic acid]", "values": [{"measurement": "IC50", "setting": "[5]", "value": "1000 to 7940", "unit": "nM"}, {"measurement": "IC50", "setting": "[2]", "value": "1000 to 7940", "unit": "nM"}]}, {"smiles": "O=C(O)P(=O)(O)O", "note": "[PFA, reference compound]", "values": [{"measurement": "Competitive with respect to Pi?", "setting": "[6]", "value": "Yes"}]}]}
